Source: patent US8455196B2, “Biomarker for identifying subgroup of early-stage lung adenocarcinoma patients” (priority 2011, dated 2013)

Columns and labels:
phospho-H2AX (γ-H2AX) = experiment: Immunoblot of cisplatin-induced H2AX phosphorylation; assay type: cell-based, human; details: cisplatin 35 μM; for cisplatin-induced γ-H2AX after TOPK shRNA: A549-Luc cells stably transfected with shRNA
Excerpt: Cells were harvested for detecting the expression of phospho-H2AX (γ-H2AX), H2AX and TOPK by immunoblotting.
Platinum-based combination chemotherapy (i.e. cisplatin) is recognized as the first-line standard of care in NSCLC. […]

pAKT = experiment: Immunoblot of EGF-induced AKT phosphorylation in A549-Luc cells; assay type: cell-based, human; details: A549-Luc stably transfected with shRNA; serum deprived 24 hrs; EGF 20 ng/ml, 0-30 min
Protocol: FIG. 15 provides the results of knockdown of TOPK decreasing EGF-induced AKT phosphorylation in A549-Luc cells. shNC, shTOPK-3 (SEQ ID NO: 3), and shTOPK-4 (SEQ ID NO: 4) stably transfected A549-Luc cells were serum deprived for 24 hrs. EGF (20 ng/ml) was added to stimulate cells for 0˜30 min as indicated. Then, cells were harvested for detecting the expression of pAKT, AKT and TOPK by immunoblotting.
(§1) Different lung cancer cell lines have been previously analyzed for the expression level of TOPK (data not shown). […] Recently, we have tested the knockdown effect of TOPK in promoting cisplatin-induced cytotoxicity in other lung cancer cells, such as CL152 and CL141 cells.

CL1-0 cells = experiment: Transwell migration of TOPK-overexpressing CL1-0 cells with pharmacological inhibitors; assay type: cell-based, human; details: CL1-0 cells transfected with pCMV2-Flag-TOPK; inhibitor 10 μM, 2 hrs
Protocol: All cell culture related reagents were purchased from Invitrogen. […] All cells were cultured in appropriate medium, e.g., RPMI 1640 for A549, CL1-0 and CL1-5; DMEM for IMR90, H1299 and H23. Each medium were supplemented with 10% fetal bovine serum, 2 mM of L-glutamine and 1% penicillin/streptomycin. Transfection of cells was done using lipofetamine (Invitrogen) according to the manufacturer's instructions. […] At 24 or 48 hr post-transfection, cells were harvested and subjected to a migration or proliferation assay and the protein level of TOPK was determined by western blotting as described previously (Chen et al 2009a). Pharmacological inhibitors used (LY294002, U0126, and SB203580) were from Cell Signaling.

CL152 cells = experiment: MTT cell viability after cisplatin in siRNA-transfected CL152 cells; assay type: cell-based; details: cisplatin 35 μM, 48 hr
Protocol: After 48 hr, MTT assays were performed to examine the cell viability (n=3, ** P<0.01).
as §1

[1] = human, in vivo; cited from earlier work
PTEN = experiment: Immunoblot of PTEN in TOPK-transfected CL1-0 cells treated with inhibitor; assay type: cell-based, human; details: LY294002 10 μM
Protocol: CL1-0 (C, left), H1299 (C, right), and IMR90 (D) cells were transiently transfected with a vector control or pCMV2-Flag-TOPK (WT) or pCMV2-Flag-TOPK (KD) plasmid; twenty-two hours after transfection, a fraction of the cells was harvested for immunoblotting as indicated in (B); the migration and cell viability of TOPK-overexpressing IMR90 cells was also evaluated as described previously (D, right panel) (*P<0.05, **P<0.01, ***P<0.001);
To determine whether TOPK mediated AKT-dependent cell mortility by regulating the PTEN protein level, we first examined whether co-treating cells with LY294002, a PI3K inhibitor, could affect the TOPK-induced decrease in PTEN. […] Moreover, when PTEN was ectopically expressed, TOPK-induced phosphorylation of AKT-Ser^473 was blocked in a dose-dependent manner (FIG. 5A).

| Molecule | cisplatin-induced γ-H2AX after TOPK shRNA (phospho-H2AX (γ-H2AX)) | EGF-induced AKT phosphorylation (pAKT) | increase in cell migration stimulated by ectopic expression of TOPK (CL1-0 cells) | other results |
| --- | --- | --- | --- | --- |
| shTOPK-3: shRNA having a sequence as set forth in SEQ ID NO:3 (TGACCCTGAGGCTTGTTACAT; shRNA, further chemistry not given here) | significantly decreasing | decreasing |  |  |
| N#CC(=C(/N)Sc1ccccc1N)/C(C#N)=C(\N)Sc1ccccc1N [U0126] |  |  | inhibited to a smaller extent |  |
| C[S+]([O-])c1ccc(-c2nc(-c3ccncc3)c(-c3ccc(F)cc3)[nH]2)cc1 (stereo not shown) [SB203580] |  |  | inhibited to a smaller extent |  |
| N.N.[Cl][Pt][Cl] [cisplatin] |  |  |  | cell death induced by cisplatin (CL152 cells): ~90%; time of peak of cisplatin-induced γ-H2AX (phospho-H2AX (γ-H2AX); A549 control cells): 12 h; concentration found in the serum of cisplatin-treated patients [1]: 35 µM |
| O=c1cc(N2CCOCC2)oc2c(-c3ccccc3)cccc12 [LY294002] |  |  |  | TOPK-induced reduction of PTEN (PTEN): no effect |
| shTOPK-4: shRNA having a sequence as set forth in SEQ ID NO:4 (TGTGGGAAATGATGACTTTAT; shRNA, further chemistry not given here) | significantly decreasing | decreasing |  |  |
